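96-well plates; 48 h exposure; 5 concentrations. Endpoints by linear interpolation between flanking doses. Not reached: highest tested concentration assigned. GI50 is the concentration that inhibits growth by half.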 Activity calls are given as the source filed them. Rule as the data show it: active = GI50 up to about 1.1 µM and inactive = higher.
Assays:
Assay in all cases: NCI anticancer screen, dose series, 48 h
SK-MEL-28 = tested on: SK-MEL-28
KM-20L2 = tested on: KM-20L2
UACC-62 = tested on: UACC-62
M14 = tested on: M14
RPMI-8226 = tested on: RPMI-8226
SF-268 = tested on: SF-268
RXF 393 = tested on: RXF 393
K562 = tested on: K562
DMS-114 = tested on: DMS-114
HOP-18 = tested on: HOP-18
M19-MEL = tested on: M19-MEL
CAKI-1 = tested on: CAKI-1
LOX IMVI = tested on: LOX IMVI
SNB-19 = tested on: SNB-19
HCT-116 = tested on: HCT-116
A498 = tested on: A498
NCI-H522 = tested on: NCI-H522
SNB-75 = tested on: SNB-75
SF-295 = tested on: SF-295
SR = tested on: SR
MOLT-4 = tested on: MOLT-4
SK-OV-3 = tested on: SK-OV-3
NCI-H23 = tested on: NCI-H23
SK-MEL-5 = tested on: SK-MEL-5
OVCAR-8 = tested on: OVCAR-8
A549 = tested on: A549
OVCAR-3 = tested on: OVCAR-3
SK-MEL-2 = tested on: SK-MEL-2
EKVX = tested on: EKVX
Malme-3M = tested on: Malme-3M
SN12C = tested on: SN12C
HCT-15 = tested on: HCT-15
DLD-1 = tested on: DLD-1
UACC-257 = tested on: UACC-257
SNB-78 = tested on: SNB-78
KM12 = tested on: KM12
XF498 = tested on: XF498
786-0 = tested on: 786-0
DMS-273 = tested on: DMS-273
UO-31 = tested on: UO-31
NCI-H226 = tested on: NCI-H226
HOP-92 = tested on: HOP-92
U-251 = tested on: U-251
NCI-H460 = tested on: NCI-H460
LXFL 529 = tested on: LXFL 529
HOP-62 = tested on: HOP-62
COLO 205 = tested on: COLO 205
HL-60 = tested on: HL-60
OVCAR-4 = tested on: OVCAR-4
OVCAR-5 = tested on: OVCAR-5
IGROV-1 = tested on: IGROV-1
TK-10 = tested on: TK-10
ACHN = tested on: ACHN
SW-620 = tested on: SW-620
SF-539 = tested on: SF-539
CCRF-CEM = tested on: CCRF-CEM
HT-29 = tested on: HT-29
HCC 2998 = tested on: HCC 2998

Measured: GI50

COc1cc(/C=N\c2ccc(C(C)C)cc2)cc(OC)c1OC
inactive: SK-MEL-28 > 100 µM | KM-20L2 > 100 µM | UACC-62 > 100 µM | M14 > 100 µM | RPMI-8226 > 42 µM | SF-268 > 100 µM | RXF 393 > 100 µM | K562 > 50.4 µM | DMS-114 49.5 µM | HOP-18 > 100 µM | M19-MEL > 92 µM | CAKI-1 > 100 µM | LOX IMVI > 54.7 µM | SNB-19 > 100 µM | HCT-116 > 100 µM | A498 > 100 µM | NCI-H522 > 59.7 µM | SNB-75 98.4 µM | SF-295 > 100 µM | SR 54.3 µM | MOLT-4 > 100 µM | SK-OV-3 > 100 µM | NCI-H23 > 100 µM | SK-MEL-5 > 78 µM | OVCAR-8 > 100 µM | A549 > 100 µM | OVCAR-3 > 100 µM | SK-MEL-2 > 100 µM | EKVX > 100 µM | Malme-3M > 100 µM | SN12C > 100 µM | DLD-1 > 100 µM | UACC-257 > 100 µM | SNB-78 > 100 µM | KM12 > 100 µM | XF498 > 100 µM | 786-0 > 100 µM | DMS-273 > 72.4 µM | UO-31 > 74.1 µM | NCI-H226 > 100 µM | HOP-92 > 88.3 µM | U-251 > 100 µM | NCI-H460 97.3 µM | LXFL 529 99.5 µM | HOP-62 > 100 µM | COLO 205 > 73.6 µM | HL-60 > 40.9 µM | OVCAR-4 > 100 µM | OVCAR-5 > 100 µM | IGROV-1 > 100 µM | TK-10 > 100 µM | ACHN > 100 µM | SW-620 > 37 µM | SF-539 > 100 µM | CCRF-CEM > 66.8 µM | HT-29 > 100 µM
> 55.5 µM: HCT-15

COC(=O)N1CCc2c(nc(N(C)CCO)[nH]c2=O)C1
inactive: SK-MEL-28 > 100 µM | KM-20L2 > 100 µM | UACC-62 > 100 µM | M14 > 100 µM | RPMI-8226 > 100 µM | SF-268 > 100 µM | RXF 393 > 100 µM | K562 > 100 µM | DMS-114 > 100 µM | HOP-18 > 100 µM | M19-MEL > 100 µM | CAKI-1 > 100 µM | LOX IMVI > 100 µM | SNB-19 > 100 µM | HCT-116 > 100 µM | A498 > 100 µM | NCI-H522 > 100 µM | SNB-75 > 100 µM | SF-295 > 100 µM | SR > 100 µM | MOLT-4 > 100 µM | SK-OV-3 > 100 µM | NCI-H23 > 100 µM | SK-MEL-5 > 100 µM | OVCAR-8 > 100 µM | A549 > 100 µM | OVCAR-3 > 100 µM | SK-MEL-2 > 100 µM | EKVX > 100 µM | Malme-3M > 100 µM | SN12C > 100 µM | DLD-1 > 100 µM | UACC-257 > 100 µM | SNB-78 > 100 µM | KM12 > 100 µM | XF498 > 100 µM | 786-0 > 100 µM | DMS-273 > 100 µM | UO-31 > 100 µM | NCI-H226 > 100 µM | HOP-92 > 100 µM | U-251 > 100 µM | NCI-H460 > 100 µM | LXFL 529 > 100 µM | HOP-62 > 100 µM | COLO 205 > 100 µM | HL-60 > 100 µM | HCC 2998 > 100 µM | OVCAR-5 > 100 µM | IGROV-1 > 100 µM | TK-10 > 100 µM | ACHN > 100 µM | SW-620 > 100 µM | SF-539 > 100 µM | CCRF-CEM > 100 µM | HT-29 > 100 µM
> 100 µM: HCT-15

Reference: ChEMBL document CHEMBL1201862, “PubChem BioAssay data set” (2004)
